Consider 3 compounds from patent publication US7405081B2, “Methods and kits for identifying scavengers of reactive oxygen species (ROS)” (priority 2001, dated 2008).

For one data set, the system named is katA-gfp fusion. Particulars: AG6 in MG/L, 30-120 μM H2O2, 2 hours.
The test system of data set [1] is katA-gfp fusion in AG6 cells. The data set is described as follows: Extracellular catalase added to IB plates, GFP expression of AG6 cells. The data set is classed as cell-based, Agrobacterium tumefaciens. Particulars: 1 or 5 microgram per ml in IB plates. The method, then: Catalase purchased from Sigma was added into IB plates at a final concentration of 1 or 5 microgram per ml. AG6 cells (carrying the katA-gfp fusion) were then grown on the IB plate. […] To ensure that the catalase in the IB medium was still active, hydrogen peroxide was dropped onto the catalase-containing plate. Air bubbles were instantly visible in the catalase-containing plate; no air bubble was found in the control catalase-free IB plate. […] Therefore, it can be concluded that extracellular catalase could not remove the intracellular hydrogen peroxide.

The nature of data set [2]: Peroxidase activity staining of cell extracts. Particulars: same cell extracts. The class given is biochemical, Agrobacterium tumefaciens.
A further data set concerns aopB-gfp. The data set is described as follows: aopB-gfp expression in strain CGI1 (specificity control). The class given is cell-based, Agrobacterium tumefaciens. Particulars: pXQ9 introduced into CGI1, IB (pH 5.5). The protocol: To study the katA gene expression in different genetic backgrounds, A. tumefaciens strains A348, AG6, AG6 (pSW172), AG6 (pXQ9), A613, CGI1 and CGI1 (pXQ9) were grown at 28° C. for 24 hours on IB (pH 5.5) agar plates. The fluorescence of each strain was determined as described above.
To determine if katA could specifically repress katA-gfp, pXQ9 was introduced into a different mini-Tn5 transposon mutant strain CGI1, which contained the transposon insertion at a chromosomal gene aopB and could produce bright green fluorescence under UV light.

Data set [3] can be described thus: Catalase activity assay in whole bacterial cells (Amplex Red Catalase Assay Kit). Particulars: whole cells grown on IB plates. The class given is cell-based, Agrobacterium tumefaciens. The method, then: Catalase activity assay: The catalase activity in whole bacterial cells was determined as previously described (Maciver and Hansen, 1996) except using the Amplex Red Catalase Assay Kit (Molecular Probes Inc., USA). Briefly, A. tumefaciens strains were grown at 28° C. for 24 hr on IB plates. The cells were harvested, washed and resuspended at OD600=1.0 in 50 mM phosphate-buffer (pH 7.4). For the strains with the wild type katA [A348, AG6 (pXQ9), and AG6 (pXQ23)], 100 μl cell suspension of each sample was incubated with 50 μl 40 μM H2O2 at time intervals of 0, 30 sec, 1 min and 2 min.
For the strains with the katA mutants [AG6, AG6 (pXQ11), AG6 (pXQ22), AG6 (pXQ26) and AG6 (pXQ27)], 100 μl cell suspension of each sample was incubated with 50 μl 5 μM H2O2 at time intervals of 0, 1, 2, and up to 6 min. The amount of H2O2 left after degradation by the bacterial catalase was then determined by adding 50 μl Amplex Red reagent N-acetyl-3, 7-dihydroxyphenoxazine at 25 μM and 0.4 U/ml horse radish peroxidase provided by the kit. The fluorometric assay was conducted by the same procedure as described above for the measurement of intracellular H2O2. The cell suspensions without the added H2O2 were used as the blank. Solutions of crystalline bovine catalase (Sigma) were used to standardize this assay.
The catalase activity in whole bacterial cells was determined as described above in Example 1 (“Catalase activity assay”).

Marks after values point to notes of the source that are not given here.

As for `OO` [H2O2, hydrogen peroxide], in the data set with katA-gfp fusion, the “katA-gfp expression levels in presence of H2O2” value is “increased significantly”.

As to Catalase, the “Repression of katA-gfp expression by catalase added to the medium” value in data set [1] is listed as “did not repress katA-gfp expression”.

In the case of “KatA: Agrobacterium tumefaciens catalase encoded by katA; putative protein of 723 amino acids, 78.7 kDa”, the “Peroxidase activity associated with the catalase activity bands” value in data set [2] is “no peroxidase activity”. Also, the “Repression of aopB-gfp expression” value in the data set with aopB-gfp is on record as “did not repress”. In addition, the Catalase activity in data set [3] (gene on plasmid in AG6, driven by katA and lac promoters (pXQ23, pXQ26, pXQ27)) is reported as 77145.5 ± 440.3 unit/10^8 cells; in data set [3] (gene on plasmid in AG6, driven by katA promoter (pXQ9, pXQ11, pXQ22)) it was 3997.3 ± 459.1 unit/10^8 cells; in data set [3] (strain AG6 (katA disrupted by mini-Tn5)) it was 175.2 ± 20.2^c unit/10^8 cells; in data set [3] (wild type strain A348), 1486.2 ± 149.5 unit/10^8 cells.
